Laboratory results from PubChem BioAssay (NCI).
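Following 48 hours of exposure in 96-well plates, responses at five concentrations were used to interpolate endpoints linearly. GI50: concentration for 50% inhibition of growth. Definition used: TGI = concentration required for complete inhibition of growth.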

Assays:
Experiment in all cases: NCI anticancer screen, dose series, 48 h
SF-268 CNS = system: SF-268 CNS
HOP-62 NSCLC = system: HOP-62 NSCLC
OVCAR-3 ovarian = system: OVCAR-3 ovarian
A549 NSCLC = system: A549 NSCLC
OVCAR-4 ovarian = system: OVCAR-4 ovarian
NCI/ADR-RES ovarian = system: NCI/ADR-RES ovarian
SNB-19 CNS = system: SNB-19 CNS
EKVX NSCLC = system: EKVX NSCLC
HCT-15 colon = system: HCT-15 colon
SK-OV-3 ovarian = system: SK-OV-3 ovarian
UO-31 renal = system: UO-31 renal
T-47D breast = system: T-47D breast
SN12C renal = system: SN12C renal
K-562 leukemia = system: K-562 leukemia
SNB-75 CNS = system: SNB-75 CNS
M14 melanoma = system: M14 melanoma
OVCAR-5 ovarian = system: OVCAR-5 ovarian
HT29 colon = system: HT29 colon
HL-60(TB) leukemia = system: HL-60(TB) leukemia
ACHN renal = system: ACHN renal
HCT-116 colon = system: HCT-116 colon
U251 CNS = system: U251 CNS
NCI-H522 lung = system: NCI-H522 lung
HOP-92 NSCLC = system: HOP-92 NSCLC
LOX IMVI melanoma = system: LOX IMVI melanoma
SF-295 CNS = system: SF-295 CNS
HS 578T breast = system: HS 578T breast
786-0 renal = system: 786-0 renal
NCI-H226 lung = system: NCI-H226 lung
MDA-MB-435 = system: MDA-MB-435
IGROV1 ovarian = system: IGROV1 ovarian
SK-MEL-5 melanoma = system: SK-MEL-5 melanoma
TK-10 renal = system: TK-10 renal
MDA-MB-231 breast = system: MDA-MB-231 breast
MOLT-4 leukemia = system: MOLT-4 leukemia
PC-3 prostate = system: PC-3 prostate
OVCAR-8 ovarian = system: OVCAR-8 ovarian
MALME-3M melanoma = system: MALME-3M melanoma
SK-MEL-28 melanoma = system: SK-MEL-28 melanoma
SW-620 colon = system: SW-620 colon
KM12 colon = system: KM12 colon
MCF7 breast = system: MCF7 breast
NCI-H460 lung = system: NCI-H460 lung
RXF 393 renal = system: RXF 393 renal
CAKI-1 renal = system: CAKI-1 renal
DU-145 prostate = system: DU-145 prostate
SF-539 CNS = system: SF-539 CNS
BT-549 breast = system: BT-549 breast
UACC-257 melanoma = system: UACC-257 melanoma
SR leukemia = system: SR leukemia
SK-MEL-2 melanoma = system: SK-MEL-2 melanoma
UACC-62 melanoma = system: UACC-62 melanoma
NCI-H23 lung = system: NCI-H23 lung
RPMI-8226 leukemia = system: RPMI-8226 leukemia
A498 renal = system: A498 renal
CCRF-CEM leukemia = system: CCRF-CEM leukemia

COc1ccc2c(c1)n([O-])c1cc(C#N)ccc1[n+]2=O
TGI (SF-268 CNS): 81.3 µM
TGI (HOP-62 NSCLC): 15.6 µM
TGI (OVCAR-3 ovarian): 26.1 µM
TGI (A549 NSCLC): 10.9 µM
TGI (OVCAR-4 ovarian): 91 µM
TGI (NCI/ADR-RES ovarian): 62.9 µM
TGI (SNB-19 CNS): > 100 µM
TGI (EKVX NSCLC): 79.1 µM
TGI (HCT-15 colon): 4.82 µM
TGI (SK-OV-3 ovarian): 43.1 µM
TGI (UO-31 renal): 23.1 µM
TGI (T-47D breast): 48.6 µM
TGI (SN12C renal): 20.6 µM
TGI (K-562 leukemia): 97.4 µM
TGI (SNB-75 CNS): 20.3 µM
TGI (M14 melanoma): 1.67 µM
TGI (OVCAR-5 ovarian): 35.9 µM
TGI (HT29 colon): 10.1 µM
TGI (HL-60(TB) leukemia): 71.6 µM
TGI (ACHN renal): 12.4 µM
TGI (HCT-116 colon): 24 µM
TGI (U251 CNS): 16.7 µM
TGI (NCI-H522 lung): 27.7 µM
TGI (HOP-92 NSCLC): 28.6 µM
TGI (LOX IMVI melanoma): 17.6 µM
TGI (SF-295 CNS): 3.77 µM
TGI (HS 578T breast): 18.6 µM
TGI (786-0 renal): 30.8 µM
TGI (NCI-H226 lung): 21.7 µM
TGI (MDA-MB-435): 6.12 µM
TGI (IGROV1 ovarian): 26.8 µM
TGI (SK-MEL-5 melanoma): 2.6 µM
TGI (TK-10 renal): 10.8 µM
TGI (MDA-MB-231 breast): 59.5 µM
TGI (MOLT-4 leukemia): 1.38 µM
TGI (PC-3 prostate): 21.7 µM
TGI (OVCAR-8 ovarian): > 100 µM
TGI (MALME-3M melanoma): 8.06 µM
TGI (SK-MEL-28 melanoma): 40.2 µM
TGI (SW-620 colon): 56.3 µM
TGI (KM12 colon): 12.5 µM
TGI (MCF7 breast): > 100 µM
TGI (NCI-H460 lung): > 100 µM
TGI (RXF 393 renal): > 100 µM
TGI (CAKI-1 renal): 14.6 µM
TGI (DU-145 prostate): 16.6 µM
TGI (SF-539 CNS): 16.2 µM
TGI (BT-549 breast): 51.6 µM
TGI (UACC-257 melanoma): 19.4 µM
TGI (SR leukemia): 18.9 µM
TGI (SK-MEL-2 melanoma): 19.2 µM
TGI (UACC-62 melanoma): 11 µM
TGI (NCI-H23 lung): 4.79 µM

CSc1nc(-c2cc3ccccc3o2)cc(-c2ccc(Cl)cc2)c1C#N
GI50 (SF-268 CNS): 18 µM
TGI (SF-268 CNS): > 80.1 µM
GI50 (HOP-62 NSCLC): 12.7 µM
TGI (HOP-62 NSCLC): > 79.6 µM
GI50 (OVCAR-3 ovarian): 2.58 µM
TGI (OVCAR-3 ovarian): > 24.2 µM
GI50 (A549 NSCLC): 4.48 µM
TGI (A549 NSCLC): > 100 µM
GI50 (OVCAR-4 ovarian): > 100 µM
TGI (OVCAR-4 ovarian): > 100 µM
GI50 (NCI/ADR-RES ovarian): 44.9 µM
TGI (NCI/ADR-RES ovarian): > 100 µM
GI50 (SNB-19 CNS): 19.7 µM
TGI (SNB-19 CNS): > 76.5 µM
GI50 (EKVX NSCLC): 0.918 µM
TGI (EKVX NSCLC): > 100 µM
GI50 (SK-OV-3 ovarian): 5.29 µM
TGI (SK-OV-3 ovarian): 56.8 µM
GI50 (RPMI-8226 leukemia): > 67.6 µM
TGI (RPMI-8226 leukemia): > 100 µM
GI50 (UO-31 renal): 1.73 µM
TGI (UO-31 renal): > 100 µM
GI50 (T-47D breast): 0.93 µM
TGI (T-47D breast): > 100 µM
GI50 (SN12C renal): 26.9 µM
TGI (SN12C renal): > 100 µM
GI50 (K-562 leukemia): > 100 µM
TGI (K-562 leukemia): > 100 µM
GI50 (SNB-75 CNS): 5.56 µM
TGI (SNB-75 CNS): 26.6 µM
GI50 (M14 melanoma): 45.5 µM
TGI (M14 melanoma): > 100 µM
GI50 (OVCAR-5 ovarian): > 84.6 µM
TGI (OVCAR-5 ovarian): > 100 µM
GI50 (HL-60(TB) leukemia): > 100 µM
TGI (HL-60(TB) leukemia): > 100 µM
GI50 (ACHN renal): 3.03 µM
TGI (ACHN renal): 67.7 µM
GI50 (HCT-116 colon): 5.11 µM
TGI (HCT-116 colon): > 100 µM
GI50 (U251 CNS): 3.76 µM
TGI (U251 CNS): 28.4 µM
GI50 (NCI-H522 lung): 8.67 µM
TGI (NCI-H522 lung): > 100 µM
GI50 (HOP-92 NSCLC): 3.4 µM
TGI (HOP-92 NSCLC): 15.2 µM
GI50 (LOX IMVI melanoma): 9.53 µM
TGI (LOX IMVI melanoma): > 100 µM
GI50 (SF-295 CNS): 6.17 µM
TGI (SF-295 CNS): 37.8 µM
GI50 (HS 578T breast): 22.2 µM
TGI (HS 578T breast): > 64.3 µM
GI50 (786-0 renal): 7.36 µM
TGI (786-0 renal): 76.8 µM
GI50 (NCI-H226 lung): 6.28 µM
TGI (NCI-H226 lung): > 100 µM
GI50 (MDA-MB-435): > 100 µM
TGI (MDA-MB-435): > 100 µM
GI50 (IGROV1 ovarian): 0.706 µM
TGI (IGROV1 ovarian): 13.4 µM
GI50 (SK-MEL-5 melanoma): > 100 µM
TGI (SK-MEL-5 melanoma): > 100 µM
GI50 (TK-10 renal): 8.07 µM
TGI (TK-10 renal): 31.8 µM
GI50 (MDA-MB-231 breast): 3.58 µM
TGI (MDA-MB-231 breast): 50 µM
GI50 (MOLT-4 leukemia): > 85 µM
TGI (MOLT-4 leukemia): > 100 µM
GI50 (PC-3 prostate): 8.82 µM
TGI (PC-3 prostate): > 100 µM
GI50 (OVCAR-8 ovarian): 3.57 µM
TGI (OVCAR-8 ovarian): > 100 µM
GI50 (MALME-3M melanoma): 20.5 µM
TGI (MALME-3M melanoma): > 100 µM
GI50 (SK-MEL-28 melanoma): > 100 µM
TGI (SK-MEL-28 melanoma): > 100 µM
GI50 (SW-620 colon): > 100 µM
TGI (SW-620 colon): > 100 µM
GI50 (KM12 colon): > 100 µM
TGI (KM12 colon): > 100 µM
GI50 (MCF7 breast): 0.352 µM
TGI (MCF7 breast): > 100 µM
GI50 (RXF 393 renal): 3.7 µM
TGI (RXF 393 renal): 20.1 µM
GI50 (A498 renal): 27 µM
TGI (A498 renal): > 100 µM
GI50 (CAKI-1 renal): 5.28 µM
TGI (CAKI-1 renal): > 73.4 µM
GI50 (DU-145 prostate): 3.87 µM
TGI (DU-145 prostate): > 100 µM
GI50 (CCRF-CEM leukemia): > 100 µM
TGI (CCRF-CEM leukemia): > 100 µM
GI50 (SF-539 CNS): 2.99 µM
TGI (SF-539 CNS): 14.6 µM
GI50 (BT-549 breast): 23.8 µM
TGI (BT-549 breast): 75.7 µM
GI50 (UACC-257 melanoma): > 100 µM
TGI (UACC-257 melanoma): > 100 µM
GI50 (SR leukemia): 28.6 µM
TGI (SR leukemia): > 100 µM
GI50 (UACC-62 melanoma): 5.03 µM
TGI (UACC-62 melanoma): > 49.8 µM
GI50 (NCI-H23 lung): 9.24 µM
TGI (NCI-H23 lung): > 100 µM
